From the supplement of paper PMC4862054

Key:
[1] = tested on: MDA-MB-436; assay: normalised viability (% of control), CellTiter-Blue; higher = more viable cells (about 100 = DMSO control); conditions: incubation time: 72 h
Method in brief: (§1)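 384-well plates were pre-loaded with compound in 5 µl medium before 20 µl of breast cancer cell suspension was seeded. Following 72 h incubation, 2.5 µl CellTiter-Blue reagent was added for 2 h at 37 °C. Fluorescence was read at 560/590 nm and plates were normalised to vehicle (100) and a positive kill control (0), checked by Z'-factor. Normalised viability is reported at a single listed concentration of the series.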

[2] = tested on: CAL-148; assay: as above; conditions: incubation time: 72 h
Method in brief: as §1

[3] = tested on: MDA-MB-468; assay: as above; conditions: incubation time: 72 h
Method in brief: as §1

[4] = tested on: CAL-85-1; assay: as above; conditions: incubation time: 72 h
Method in brief: as §1

[5] = tested on: HDQ-P1; assay: as above; conditions: incubation time: 72 h
Method in brief: as §1

[6] = tested on: CAL-51; assay: as above; conditions: incubation time: 72 h
Method in brief: as §1

[7] = tested on: MDA-MB-231; assay: as above; conditions: incubation time: 72 h
Method in brief: as §1

[8] = tested on: CAL-120; assay: as above; conditions: incubation time: 72 h
Method in brief: as §1

[9] = tested on: DU-4475; assay: as above; conditions: incubation time: 72 h
Method in brief: as §1

[10] = tested on: HCC1143; assay: as above; conditions: incubation time: 72 h
Method in brief: as §1

[11] = tested on: HCC1599; assay: as above; conditions: incubation time: 72 h
Method in brief: as §1

[12] = tested on: HCC1937; assay: as above; conditions: incubation time: 72 h
Method in brief: as §1

[13] = tested on: BT-549; assay: as above; conditions: incubation time: 72 h
Method in brief: as §1

[14] = tested on: MDA-MB-453; assay: as above; conditions: incubation time: 72 h
Method in brief: as §1

[15] = tested on: BT-474; assay: as above; conditions: incubation time: 72 h
Method in brief: as §1

[16] = tested on: Hs578T; assay: as above; conditions: incubation time: 72 h
Method in brief: as §1

[17] = tested on: MFM-223; assay: as above; conditions: incubation time: 72 h
Method in brief: as §1

[18] = tested on: SK-BR-3; assay: as above; conditions: incubation time: 72 h
Method in brief: as §1

[19] = tested on: MDA-MB-436; assay: normalised viability (% of control), CellTiter-Blue; higher = more viable cells (about 100 = DMSO control); conditions: 50 nM; incubation time: 72 h
Experimental: (§2)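 DSRT, CellTiter-Blue viability, 72 h incubation. Signal is normalised to DMSO and benzethonium chloride controls. Value is the normalised response at dose 3.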

[20] = tested on: CAL-148; assay: as above; conditions: 5 nM; incubation time: 72 h
Experimental: as §2

[21] = tested on: MDA-MB-468; assay: as above; conditions: 50 nM; incubation time: 72 h
Experimental: as §2

[22] = tested on: CAL-85-1; assay: as above; conditions: 5 nM; incubation time: 72 h
Experimental: as §2

[23] = tested on: HDQ-P1; assay: as above; conditions: 5 nM; incubation time: 72 h
Experimental: as §2

[24] = tested on: CAL-51; assay: as above; conditions: 5 nM; incubation time: 72 h
Experimental: as §2

[25] = tested on: MDA-MB-231; assay: as above; conditions: 50 nM; incubation time: 72 h
Experimental: as §2

[26] = tested on: CAL-120; assay: as above; conditions: 50 nM; incubation time: 72 h
Experimental: as §2

[27] = tested on: DU-4475; assay: as above; conditions: 5 nM; incubation time: 72 h
Experimental: as §2

[28] = tested on: HCC1143; assay: as above; conditions: 50 nM; incubation time: 72 h
Experimental: as §2

[29] = tested on: HCC1599; assay: as above; conditions: 50 nM; incubation time: 72 h
Experimental: as §2

[30] = tested on: HCC1937; assay: as above; conditions: 50 nM; incubation time: 72 h
Experimental: as §2

[31] = tested on: BT-549; assay: as above; conditions: 50 nM; incubation time: 72 h
Experimental: as §2

[32] = tested on: MDA-MB-453; assay: as above; conditions: 5 nM; incubation time: 72 h
Experimental: as §2

[33] = tested on: BT-474; assay: as above; conditions: 50 nM; incubation time: 72 h
Experimental: as §2

[34] = tested on: Hs578T; assay: as above; conditions: 50 nM; incubation time: 72 h
Experimental: as §2

[35] = tested on: MFM-223; assay: as above; conditions: 50 nM; incubation time: 72 h
Experimental: as §2

[36] = tested on: SK-BR-3; assay: as above; conditions: 50 nM; incubation time: 72 h
Experimental: as §2

[37] = tested on: MDA-MB-436; assay: normalised viability (% of control), CellTiter-Blue; higher = more viable cells (100 = DMSO, 0 = benzethonium chloride kill control); conditions: incubation time: 72 h
Experimental: (§3)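 DSRT, CellTiter-Blue viability, 72 h incubation. Signal is normalised to DMSO and benzethonium chloride controls. Value is the normalised response at dose 1.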

[38] = tested on: CAL-148; assay: as above; conditions: incubation time: 72 h
Experimental: as §3

[39] = tested on: MDA-MB-468; assay: as above; conditions: incubation time: 72 h
Experimental: as §3

[40] = tested on: CAL-85-1; assay: as above; conditions: incubation time: 72 h
Experimental: as §3

[41] = tested on: HDQ-P1; assay: as above; conditions: incubation time: 72 h
Experimental: as §3

[42] = tested on: CAL-51; assay: as above; conditions: incubation time: 72 h
Experimental: as §3

[43] = tested on: MDA-MB-231; assay: as above; conditions: incubation time: 72 h
Experimental: as §3

[44] = tested on: CAL-120; assay: as above; conditions: incubation time: 72 h
Experimental: as §3

[45] = tested on: DU-4475; assay: as above; conditions: incubation time: 72 h
Experimental: as §3

[46] = tested on: HCC1143; assay: as above; conditions: incubation time: 72 h
Experimental: as §3

[47] = tested on: HCC1599; assay: as above; conditions: incubation time: 72 h
Experimental: as §3

[48] = tested on: HCC1937; assay: as above; conditions: incubation time: 72 h
Experimental: as §3

[49] = tested on: BT-549; assay: as above; conditions: incubation time: 72 h
Experimental: as §3

[50] = tested on: MDA-MB-453; assay: as above; conditions: incubation time: 72 h
Experimental: as §3

[51] = tested on: BT-474; assay: as above; conditions: incubation time: 72 h
Experimental: as §3

[52] = tested on: Hs578T; assay: as above; conditions: incubation time: 72 h
Experimental: as §3

[53] = tested on: MFM-223; assay: as above; conditions: incubation time: 72 h
Experimental: as §3

[54] = tested on: SK-BR-3; assay: as above; conditions: incubation time: 72 h
Experimental: as §3

With `CC[C@@]1(O)C(=O)OCc2c1cc1n(c2=O)Cc2cc3ccccc3nc2-1` [Camptothecin] the normalised viability ([1]; 5 nM) was 97%, the normalised viability ([1]; 500 nM) was 31.2% and the normalised viability ([1]; 5000 nM) was 10.3%. It also gave a normalised viability ([2]; 1.5 nM) of 102%, a normalised viability ([2]; 15 nM) of 47.9% and a normalised viability ([2]; 50 nM) of 30.9%. The normalised viability ([3]; 5 nM) was 93%, the normalised viability ([3]; 500 nM) was 12.1% and the normalised viability ([3]; 5000 nM) was 6.62%. For the same compound, the normalised viability ([4]; 1.5 nM) was 98%, the normalised viability ([4]; 15 nM) was 87.3% and the normalised viability ([4]; 50 nM) was 74.8%. The normalised viability ([5]; 1.5 nM) was 90.7%, the normalised viability ([5]; 15 nM) was 83.2% and the normalised viability ([5]; 50 nM) was 65.9%. The normalised viability ([6]; 1.5 nM) was 103%, the normalised viability ([6]; 15 nM) was 57% and the normalised viability ([6]; 50 nM) was 31.1%. The normalised viability ([7]; 5 nM) was 98%, the normalised viability ([7]; 500 nM) was 51.8% and the normalised viability ([7]; 5000 nM) was 22.6%. It also gave a normalised viability ([8]; 5 nM) of 81.5%, a normalised viability ([8]; 500 nM) of 22.6% and a normalised viability ([8]; 5000 nM) of 10.3%. The normalised viability ([9]; 1.5 nM) was 117%, the normalised viability ([9]; 15 nM) was 60.2% and the normalised viability ([9]; 50 nM) was 44.7%. The normalised viability ([10]; 5 nM) was 78.3%, the normalised viability ([10]; 500 nM) was 33.5% and the normalised viability ([10]; 5000 nM) was 22.9%. For the same compound, the normalised viability ([11]; 5 nM) was 108%, the normalised viability ([11]; 500 nM) was 60.1% and the normalised viability ([11]; 5000 nM) was 29.5%. It also gave a normalised viability ([12]; 5 nM) of 92.6%, a normalised viability ([12]; 500 nM) of 29.6% and a normalised viability ([12]; 5000 nM) of 25.5%. The normalised viability ([13]; 5 nM) was 82.1%, the normalised viability ([13]; 500 nM) was 39.3% and the normalised viability ([13]; 5000 nM) was 20.7%. It also gave a normalised viability ([14]; 1.5 nM) of 114%, a normalised viability ([14]; 15 nM) of 105% and a normalised viability ([14]; 50 nM) of 77.4%. It also gave a normalised viability ([15]; 5 nM) of 101%, a normalised viability ([15]; 500 nM) of 69.9% and a normalised viability ([15]; 5000 nM) of 60.3%. The normalised viability ([16]; 5 nM) was 112%, the normalised viability ([16]; 500 nM) was 59.6% and the normalised viability ([16]; 5000 nM) was 11.5%. The normalised viability ([17]; 5 nM) was 108%, the normalised viability ([17]; 500 nM) was 79.8% and the normalised viability ([17]; 5000 nM) was 32.3%. For the same compound, the normalised viability ([18]; 5 nM) was 100%, the normalised viability ([18]; 500 nM) was 20.6% and the normalised viability ([18]; 5000 nM) was 8%. The normalised viability [19] was 87.9%, the normalised viability [20] was 70.3% and the normalised viability [21] was 46.8%. The normalised viability [22] was 93.7%, the normalised viability [23] was 99.4% and the normalised viability [24] was 99%. The normalised viability [25] was 78.9%, the normalised viability [26] was 65.5% and the normalised viability [27] was 82.2%. For the same compound, the normalised viability [28] was 50.9%, the normalised viability [29] was 90.2% and the normalised viability [30] was 45.8%. For the same compound, the normalised viability [31] was 67.3%, the normalised viability [32] was 103% and the normalised viability [33] was 90.8%. For the same compound, the normalised viability [34] was 81.8%, the normalised viability [35] was 93.8% and the normalised viability [36] was 49.7%.

`COc1cc(Nc2ncc(F)c(Nc3ccc4c(n3)NC(=O)C(C)(C)O4)n2)cc(OC)c1OC` [R406] (1 nM) gave a normalised viability [37] of 92.1%, a normalised viability [38] of 110% and a normalised viability [39] of 94.1%. The normalised viability [40] was 84.8%, the normalised viability [41] was 116% and the normalised viability [42] was 106%. For the same compound, the normalised viability [43] was 95.7%, the normalised viability [44] was 83.5% and the normalised viability [45] was 112%. The normalised viability [46] was 91.6%, the normalised viability [47] was 101% and the normalised viability [48] was 91.6%. It also gave a normalised viability [49] of 97%, a normalised viability [50] of 106% and a normalised viability [51] of 117%. It also gave a normalised viability [52] of 116%, a normalised viability [53] of 93.3% and a normalised viability [54] of 102%.
